# Data from patent publication EP2098236A1, “Cytostatic compositions” (Medizinische Hochschule Hannover, priority 2008, dated 2009).
# Columns and labels:
# [1] = test system: TPMT wildtype lymphoblastoid cells; test: cells; settings: Homo sapiens, Lymphoblastoid cell, 72 h, read-out: Mean percentage viable cells after 72 h
# [2] = test system: patients with childhood ALL; settings: cited from earlier work; for central nervous system (CNS) relapse: COALL-92, maintenance, p = 0.053
# childhood ALL [3] = settings: CCG-1952, cited from earlier work; for event-free survival: at 5 years, p = 0.02
# childhood ALL [4] = settings: UK MRC ALL 97, cited from earlier work
# [5] = in vivo; cited from earlier work
smiles,measurement,setting,value
"Sc1ncnc2nc[nH]c12 [MP, 6-mercaptopurine]",viability at 0.125 µM,[1],89.3%
same,viability at 0.25 µM,[1],84.7%
same,viability at 0.5 µM,[1],79.8%
same,viability at 1 µM,[1],73.1%
same,central nervous system (CNS) relapse,[2],0.8%
same,Treatment interruptions,[2]; COALL-92,2.8 % of maintenance treatment weeks
same,event-free survival,childhood ALL [3],77.1%
same,patients who developed non-fatal hepatic toxicity with features of veno-occlusive disease (VOD),childhood ALL [4],less than 2%
same,half lives,[5],approximately 21 minutes
"Nc1nc2nc[nH]c2c(=S)[nH]1 [TG, 6-thioguanine]",viability at 0.0625 µM,[1],81.2%
same,viability at 0.125 µM,[1],75.9%
same,viability at 0.25 µM,[1],71.3%
same,central nervous system (CNS) relapse,[2],3.4%
same,Treatment interruptions,[2]; COALL-92,4.7 % of maintenance treatment weeks
same,"Treatment interruptions, higher rate compared to the 6-mercaptopurine arm",[2]; COALL-92,1.7 fold
same,"incidence of thrombocytopenia (< 100 x 10^9/l) without evidence of leukocytopenia (<1 x 10^9/l), higher compared to the 6-mercaptopurine arm",[2]; COALL-92,7.5 fold
same,event-free survival,childhood ALL [3],85.1%
same,patients with hepatic VOD-like symptoms,childhood ALL [3],approximately 20%
same,patients who developed non-fatal hepatic toxicity with features of veno-occlusive disease (VOD),childhood ALL [4],11%
same,"isolated disease recurrence in the CNS, odds ratio","childhood ALL [4]; vs 6-mercaptopurine, 95% confidence interval 0.30 - 0.92",0.53
same,"risk of death in remission, odds ratio","childhood ALL [4]; vs 6-mercaptopurine, 95% confidence interval 1.20 - 4.14, mainly due to infections",2.22
same,half lives,[5],~90 min
